{"source": "patent US20070082819A1", "about": "(priority 2003, published 2007)", "tested_on": "eight representative weed species", "details": "in vivo"}
{"compound": "CCCC[N+](CCCC)(CCCC)CCCC.[Br-]", "note": "[Tetrabutylammonium hyrobromide, tetrabutylammonium bromide]", "values": [{"measurement": "Mean Activity (%)", "result": 72, "unit": "%"}]}
